In patent US20230339851A1, “CXCR6 SULFONAMIDE COMPOUNDS” (CHEMOCENTRYX, INC., priority 2022, published 2023):
pIC50: −log10 of the molar value.

Target: T1, human CXCR6 (Homo sapiens, UniProt O00574)
T1 construct: expressed in transfected cells
Assay: Radioligand Binding Assay (125I-CXCL16 displacement)
Conditions: L1.2 cells stably transfected with human CXCR6 cDNA, 0.1 nM 125I-CXCL16, 4° C., three-hour incubation; read-out: Potency (IC50)
Procedure, shortened: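 Displacement of 0.1 nM 125I-CXCL16 from human CXCR6 stably expressed in L1.2 cells was measured after a 3 h, 4 °C incubation in HBSS with 0.1% BSA. Filter-bound cpm were counted, and IC50 values came from a 3-parameter nonlinear fit.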

T1 sequence (O00574 whole entry): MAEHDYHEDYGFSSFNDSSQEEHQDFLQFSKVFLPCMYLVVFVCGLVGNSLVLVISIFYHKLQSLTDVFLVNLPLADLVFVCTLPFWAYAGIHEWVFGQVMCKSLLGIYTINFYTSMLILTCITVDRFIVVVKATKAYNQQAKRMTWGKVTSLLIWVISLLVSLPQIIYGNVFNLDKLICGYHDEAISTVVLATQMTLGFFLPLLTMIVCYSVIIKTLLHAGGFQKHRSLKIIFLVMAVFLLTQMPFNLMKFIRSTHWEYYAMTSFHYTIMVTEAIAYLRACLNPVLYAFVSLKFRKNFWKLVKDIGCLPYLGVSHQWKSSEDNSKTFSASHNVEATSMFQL

Row | pIC50 | SMILES
1 | 4.70 to 5.70 | CCOc1cc(NC(=O)[C@@H](O)C(C)C)ccc1S(=O)(=O)Nc1cccc(Cl)c1Cl [Example 1.555]
2 | ≥ 6.70 | CCOc1cc(NC(=O)c2ccn(CC)c(=O)c2)ccc1S(=O)(=O)Nc1cccc(OC(F)(F)F)c1 [Example 1.396]
3 | 5.70 to 6.12 | Cc1cc(NC(=O)C2CCCCC2C)ccc1S(=O)(=O)Nc1cccc(C(F)(F)F)c1 (centres unmarked) [Example 1.538]
4 | ≥ 6.70 | CCOc1cc(NC(=O)C(OC)c2ccccc2)ccc1S(=O)(=O)Nc1cccc(OC(F)(F)F)c1 (centres unmarked) [Example 1.399]
5 | ≥ 6.70 | CCOc1cc(NC(=O)C(C(N)=O)C2CCCC2)ccc1S(=O)(=O)Nc1cccc(OC(F)(F)F)c1 (centres unmarked) [Example 1.245]
6 | ≥ 6.70 | CCOc1cc(NC(=O)C(CC2CCOCC2)C(=O)O)ccc1S(=O)(=O)Nc1cccc(OC(F)(F)F)c1 (centres unmarked) [Example 1.118]
7 | 6.12 to 6.70 | CCOc1cc(NC(=O)[C@@H](CO)c2ccccc2)ccc1S(=O)(=O)Nc1ccc(C)c(Cl)c1 [Example 1.441]
8 | 5.70 to 6.12 | CCOc1cc(NC(=O)c2ccc(OC)cc2)ccc1S(=O)(=O)Nc1cccc(OC(F)(F)F)c1 [Example 1.568]
9 | 6.12 to 6.70 | CCOc1cc(NC(=O)C2CCCC(=O)C2)ccc1S(=O)(=O)Nc1cccc(OC(F)(F)F)c1 (centres unmarked) [Example 1.269]
10 | ≥ 6.70 | CCOc1cc(NC(=O)[C@@H](N)c2ccccc2)ccc1S(=O)(=O)Nc1ccc(F)c(OC(F)(F)F)c1 [Example 1.560]
11 | 4.70 to 5.70 | Cc1cc(NC(=O)c2cncn2C)ccc1S(=O)(=O)Nc1cccc(C(F)(F)F)c1 [Example 1.048]
12 | ≥ 6.70 | CCOc1cc(NC(=O)[C@@H](CO)C(C)C)ccc1S(=O)(=O)Nc1ccc(C)c(CC)c1 [Example 1.356]
13 | 4.70 to 5.70 | COc1cc(NC(=O)[C@H]2CC[C@H](OC)CC2)ccc1S(=O)(=O)Nc1cccc(C(F)(F)F)c1 [Example 1.051]
14 | 6.12 to 6.70 | CCOC(=O)[C@H]1CC(C)=C(C)C[C@@H]1C(=O)Nc1ccc(S(=O)(=O)Nc2cccc(OC(F)(F)F)c2)c(OCC)c1 [Example 1.291]
15 | 4.70 to 5.70 | CCOc1cc(NC(=O)[C@@H](CO)C(C)C)ccc1S(=O)(=O)Nc1cccc(Cl)c1C(F)(F)F [Example 1.159]
16 | 4.70 to 5.70 | Cn1nccc1C(=O)Nc1ccc(S(=O)(=O)Nc2cccc(C(F)(F)F)c2)c(C#N)c1 [Example 1.187]
17 | 5.70 to 6.12 | CCOc1cc(NC(=O)C2COCCO2)ccc1S(=O)(=O)Nc1cccc(OC(F)(F)F)c1 (centres unmarked) [Example 1.282]
18 | 4.70 to 5.70 | CCOc1cc(NC(=O)[C@@H](CO)C(C)C)ccc1S(=O)(=O)Nc1ccc(CO)c(C(F)(F)F)c1 [Example 1.006]
19 | 4.70 to 5.70 | CCOc1cc(NC(=O)C2CCNCC2)ccc1S(=O)(=O)Nc1cccc(OC(F)(F)F)c1 [Example 1.427]
20 | ≥ 6.70 | CCOc1cc(NC(=O)[C@@H](O)c2ccccc2)ccc1S(=O)(=O)Nc1cccc(OC(F)(F)F)c1 [Example 1.168]
21 | 4.70 to 5.70 | CC(=O)Nc1ccc(S(=O)(=O)Nc2cccc(C(F)(F)F)c2)c(C)c1 [Example 1.321]
22 | 6.12 to 6.70 | CCOc1cc(NC(=O)[C@@H](CO)c2ccccc2)ccc1S(=O)(=O)Nc1ccc(OC)c(C(F)(F)F)c1 [Example 1.546]
23 | 4.70 to 5.70 | COc1cc(NC(=O)c2ccnn2C)ccc1S(=O)(=O)Nc1cc(C(F)(F)F)cc(C(F)(F)F)c1 [Example 1.112]
24 | ≥ 6.70 | CCc1cc(NC(=O)[C@@H](CO)C2CC2)ccc1S(=O)(=O)Nc1cccc(OC(F)(F)F)c1 [Example 1.150]

Row | pIC50 | SMILES
25 | ≥ 6.70 | CCOc1cc(NC(=O)C(C)c2ccccc2)ccc1S(=O)(=O)Nc1cccc(OC(F)(F)F)c1 (centres unmarked) [Example 1.064]
26 | ≥ 6.70 | COCc1cc(NC(=O)[C@@H](CO)c2ccccc2)ccc1S(=O)(=O)Nc1cccc(OC(F)(F)F)c1 [Example 1.143]
27 | 4.70 to 5.70 | COc1cc(NC(=O)C2CCCCC2=O)ccc1S(=O)(=O)Nc1cccc(OC(F)(F)F)c1 (centres unmarked) [Example 1.457]
28 | 4.70 to 5.70 | COc1cc(NC(=O)c2ccnn2C)ccc1S(=O)(=O)Nc1ccc(C#N)cc1 [Example 1.491]
29 | 4.70 to 5.70 | COCC(=O)Nc1ccc(S(=O)(=O)Nc2cccc(C(F)(F)F)c2)c(C)c1 [Example 1.544]
30 | 4.70 to 5.70 | COc1cccc(C(=O)Nc2ccc(S(=O)(=O)Nc3cccc(C(F)(F)F)c3)c(C)c2)c1 [Example 1.534]
31 | 6.12 to 6.70 | CC(C)c1cc(NC(=O)c2ccnn2C)ccc1S(=O)(=O)Nc1cccc(OC(F)(F)F)c1 [Example 1.456]
32 | ≥ 6.70 | Cc1cc(NC(=O)[C@@H](CO)C2CC2)ccc1S(=O)(=O)Nc1cccc(OC(F)(F)F)c1 [Example 1.079]
33 | ≥ 6.70 | COc1cc(NC(=O)CC2CCCCC2)ccc1S(=O)(=O)Nc1cccc(C(F)(F)F)c1 [Example 1.344]
34 | 5.70 to 6.12 | CCOc1cc(NC(=O)CC(C)(C)O)ccc1S(=O)(=O)Nc1cccc(OC(F)(F)F)c1 [Example 1.166]
35 | ≥ 6.70 | COc1cc(NC(=O)[C@@H](CO)C(C)C)ccc1S(=O)(=O)Nc1cccc(OC(F)(F)F)c1 [Example 1.009]
36 | ≥ 6.70 | CCOc1cc(NC(=O)[C@@H](O)C(C)C)ccc1S(=O)(=O)Nc1ccc(CC)c(C(F)(F)F)c1 [Example 1.411]
37 | 6.12 to 6.70 | COc1ccc(NS(=O)(=O)c2ccc(NC(=O)c3ccnn3C)cc2OC)cc1C(F)(F)F [Example 1.580]
38 | 5.70 to 6.12 | COc1cc(NC(=O)c2ccnn2C)ccc1S(=O)(=O)Nc1ccc(OC(F)(F)F)c(C)c1 [Example 1.125]
39 | ≥ 6.70 | CCOc1cc(NC(=O)[C@@H](O)C(C)C)ccc1S(=O)(=O)Nc1ccc(OC)c(C(F)(F)F)c1 [Example 1.021]
40 | 6.12 to 6.70 | CCOc1cc(NC(=O)[C@@H](CO)C(C)C)ccc1S(=O)(=O)Nc1cccc(Cl)c1C [Example 1.540]
41 | 6.12 to 6.70 | Cc1cc(NC(=O)c2ccn(C)c(=O)c2)ccc1S(=O)(=O)Nc1cccc(OC(F)(F)F)c1 [Example 1.100]
42 | ≥ 6.70 | CCOc1cc(NC(=O)C(O)c2cccc(Cl)c2)ccc1S(=O)(=O)Nc1cccc(OC(F)(F)F)c1 (centres unmarked) [Example 1.528]
43 | 5.70 to 6.12 | COc1cc(NC(=O)c2ccnn2C)ccc1S(=O)(=O)Nc1cccc(N(C)C)c1 [Example 1.337]
44 | 6.12 to 6.70 | CCOc1cc(NC(=O)[C@H]2CC=CC[C@H]2CO)ccc1S(=O)(=O)Nc1cccc(OC(F)(F)F)c1 [Example 1.539]
45 | ≥ 6.70 | CCOc1cc(NC(=O)[C@@H](CO)C(C)C)ccc1S(=O)(=O)Nc1cccc(OC(F)F)c1 [Example 1.066]
46 | 6.12 to 6.70 | COc1cc(NC(=O)[C@@H](O)C(C)C)ccc1S(=O)(=O)Nc1ccc(C)c(C(F)(F)F)c1 [Example 1.369]
47 | ≥ 6.70 | CCOc1cc(NC(=O)C(CO)C2CCCC2)ccc1S(=O)(=O)Nc1cccc(OC(F)(F)F)c1 (centres unmarked) [Example 1.455]
48 | ≥ 6.70 | CCOc1cc(NC(=O)C(CC)C(O)C2CCOCC2)ccc1S(=O)(=O)Nc1cccc(OC(F)(F)F)c1 (centres unmarked) [Example 1.039]

Row | pIC50 | SMILES
49 | 5.70 to 6.12 | Cn1nccc1C(=O)Nc1ccc(S(=O)(=O)Nc2cccc(C(F)(F)F)c2)c(OC(F)(F)F)c1 [Example 1.461]
50 | ≥ 6.70 | CCOc1cc(NC(=O)C(O)c2ccc(F)cc2)ccc1S(=O)(=O)Nc1cccc(OC(F)(F)F)c1 (centres unmarked) [Example 1.452]
51 | 6.12 to 6.70 | Cn1nccc1C(=O)Nc1ccc(S(=O)(=O)Nc2cccc(C(F)(F)F)c2)c(Cl)c1 [Example 1.141]
52 | 5.70 to 6.12 | Cn1nccc1C(=O)Nc1ccc(S(=O)(=O)Nc2cccc(OC(F)(F)F)c2)c(C#N)c1 [Example 1.289]
53 | 5.70 to 6.12 | CCOc1cc(NC(=O)C2(c3ccccc3)CC2)ccc1S(=O)(=O)Nc1cccc(OC(F)(F)F)c1 [Example 1.394]
54 | 4.70 to 5.70 | CCOc1cc(NC(=O)c2cccn(C)c2=O)ccc1S(=O)(=O)Nc1cccc(OC(F)(F)F)c1 [Example 1.260]
55 | ≥ 6.70 | CCOc1cc(NC(=O)C(CC(C)C)C(=O)O)ccc1S(=O)(=O)Nc1cccc(OC(F)(F)F)c1 (centres unmarked) [Example 1.421]
56 | 4.70 to 5.70 | CCOc1cc(NC(=O)[C@@H](CO)c2ccccc2)ccc1S(=O)(=O)Nc1cccc(C(C)(C)O)c1 [Example 1.270]
57 | 5.70 to 6.12 | COc1cc(NC(=O)C2CCCC2)ccc1S(=O)(=O)Nc1cccc(C(F)(F)F)c1 [Example 1.497]
58 | 4.70 to 5.70 | Cc1cc(NC(=O)c2cccc(C(F)(F)F)c2)ccc1S(=O)(=O)Nc1cccc(C(F)(F)F)c1 [Example 1.443]
59 | ≥ 6.70 | CCOc1cc(NC(=O)[C@@H]2CC=CC[C@H]2O)ccc1S(=O)(=O)Nc1cccc(OC(F)(F)F)c1 [Example 1.505]
60 | 4.70 to 5.70 | COc1cc(NC(=O)[C@@H]2CCC[C@H](OC)C2)ccc1S(=O)(=O)Nc1cccc(C(F)(F)F)c1 [Example 1.561]
61 | 4.70 to 5.70 | CCOc1cc(NC(=O)[C@@H](O)C(C)C)ccc1S(=O)(=O)Nc1cccc(Cl)c1OC [Example 1.216]
62 | 6.12 to 6.70 | Cc1cc(NC(=O)c2ccncc2)ccc1S(=O)(=O)Nc1cccc(C(F)(F)F)c1 [Example 1.524]
63 | 4.70 to 5.70 | COc1cc(NC(=O)c2ccnn2C)ccc1S(=O)(=O)Nc1cccc(C#N)c1 [Example 1.331]
64 | 5.70 to 6.12 | COc1cc(NC(=O)[C@@H]2C=CCN2)ccc1S(=O)(=O)Nc1cccc(C(F)(F)F)c1 [Example 1.197]
65 | ≥ 6.70 | CCOc1cc(NC(=O)[C@@H](O)C(C)C)ccc1S(=O)(=O)Nc1ccc(Cl)c(OC(F)(F)F)c1 [Example 1.533]
66 | 6.12 to 6.70 | Cc1cc(NC(=O)[C@@H](O)c2ccccc2)ccc1S(=O)(=O)Nc1cccc(OC(F)(F)F)c1 [Example 1.266]
67 | 4.70 to 5.70 | CCOc1cc(NC(=O)CC(O)c2nccn2C)ccc1S(=O)(=O)Nc1cccc(OC(F)(F)F)c1 (centres unmarked) [Example 1.106]
68 | 5.70 to 6.12 | CCOc1cc(NC(=O)CC(O)c2cccnc2)ccc1S(=O)(=O)Nc1cccc(OC(F)(F)F)c1 (centres unmarked) [Example 1.236]
69 | 4.70 to 5.70 | CCOc1cc(NC(=O)C2CCC(O)CC2)ccc1S(=O)(=O)Nc1cccc(OC(F)(F)F)c1 (centres unmarked) [Example 1.285]
70 | ≥ 6.70 | CCOc1cc(NC(=O)C(CO)CCC(C)C)ccc1S(=O)(=O)Nc1cccc(OC(F)(F)F)c1 (centres unmarked) [Example 1.128]
71 | ≥ 6.70 | CCc1cc(NC(=O)C(NC(C)=O)C(C)C)ccc1S(=O)(=O)Nc1cccc(OC(F)(F)F)c1 (centres unmarked) [Example 1.487]
